Assay results published in patent US9163256B2, “Mutant receptors and their use in a nuclear receptor-based inducible gene expression system” (priority 2004, dated 2015).

Experiments:
[1] = biological target: CfEcR-DEF mutant V107I/Y127E/T52V (Choristoneura fumiferana, UniProt O77255, T335V/V390I/Y410E); test: GAL4-driven luciferase reporter assay in NIH3T3 cells; type: cell-based
Method: (§1) This construct was prepared in the same way as in switch 1.1 above except wild-type CfEcR-DEF was replaced with mutant CfEcR-DEF comprising a ligand binding domain comprising a substitution mutation selected from Table 1 below.
(§2) DNAs were transfected into mouse NIH3T3 cells (ATCC) as follows. Standard methods for culture and maintenance of the cells were followed. Cells were harvested and plated 96-well plates at 2,500 cells per well, in 50 μL of growth medium containing 10% fetal bovine serum (FBS). Twenty-four hours later, the cells were treated with 35 μL of serum-free growth medium containing either dimethylsulfoxide (DMSO; control) or a DMSO solution of ligand. The cells were then transfected using Superfect (Qiagen Inc.) transfection reagent. For each well, 0.625 μL of Superfect was mixed with 14.2 μL of serum-free growth medium. 0.16 μg of reporter construct and 0.04 μg of each receptor construct were added to the transfection reagent mix. The contents of the transfection mix were mixed in a vortex mixer and let stand at room temperature for 30 minutes. At the end of incubation, 15 μL of transfection mix was added to the cells. The cells were maintained at 37° C. and 5% CO2 for 48 hours in 5% FBS.
(§3) Reporter Assays: Cells were harvested 40 hours after adding ligands. 125 μL of passive lysis buffer (part of Dual-Luciferase reporter assay system from Promega Corporation) were added to each well of the […] plate. The plates were placed on a rotary shaker for 15 minutes. Twenty μL of lysate were assayed. Luciferase activity was measured using Dual-Luciferase reporter assay system from Promega Corporation following the manufacturer's instructions. Fold induction (FI) activities were calculated by dividing relative light units (“RLU”) in ligand treated cells with RLU in DMSO treated cells (untreated control).

[2] = biological target: CfEcR-DEF mutant F48N (Choristoneura fumiferana, UniProt O77255, F331N); test: as above; type: cell-based
Method: as §1, §2, §3

[3] = biological target: CfEcR-DEF mutant T52V/A110P (Choristoneura fumiferana, UniProt O77255, A393P/T335V); test: as above; type: cell-based
Method: as §1, §2, §3

[4] = biological target: CfEcR-DEF mutant M125W (Choristoneura fumiferana, UniProt O77255, M408W); test: as above; type: cell-based
Method: as §1, §2, §3

[5] = biological target: CfEcR-DEF mutant V96L (Choristoneura fumiferana, UniProt O77255, V379L); test: cell-based
Method: as §1, §2, §3

[6] = biological target: CfEcR-DEF mutant V96W (Choristoneura fumiferana, UniProt O77255, V379W); test: cell-based
Method: as §1, §2, §3

[7] = biological target: CfEcR-DEF mutant M92L (Choristoneura fumiferana, UniProt O77255, M375L); test: cell-based
CfEcR-DEF mutant M92L, sequence (O77255 entry or part of it M375L): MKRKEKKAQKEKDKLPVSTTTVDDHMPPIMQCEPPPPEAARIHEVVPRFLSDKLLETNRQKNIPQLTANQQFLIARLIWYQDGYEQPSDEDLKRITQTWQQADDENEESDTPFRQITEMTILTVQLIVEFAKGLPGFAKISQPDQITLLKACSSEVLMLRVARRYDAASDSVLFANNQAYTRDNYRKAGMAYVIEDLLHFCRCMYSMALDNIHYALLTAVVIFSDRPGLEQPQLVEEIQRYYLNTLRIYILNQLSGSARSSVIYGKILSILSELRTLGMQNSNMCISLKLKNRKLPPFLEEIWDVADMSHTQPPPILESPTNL
CfEcR-DEF mutant M92L, sequence (P28702 299-449, further chain): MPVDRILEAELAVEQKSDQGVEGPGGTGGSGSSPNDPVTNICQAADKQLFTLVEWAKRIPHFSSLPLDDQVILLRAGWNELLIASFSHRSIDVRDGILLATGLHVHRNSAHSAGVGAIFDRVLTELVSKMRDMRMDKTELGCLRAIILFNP
Method: as §1, §2, §3

[8] = biological target: CfEcR-DEF mutant F109N (Choristoneura fumiferana, UniProt O77255, F392N); test: cell-based
CfEcR-DEF mutant F109N, sequence (P28702 299-449): as the sequence (P28702 299-449, further chain) above
CfEcR-DEF mutant F109N, sequence (O77255 entry or part of it F392N): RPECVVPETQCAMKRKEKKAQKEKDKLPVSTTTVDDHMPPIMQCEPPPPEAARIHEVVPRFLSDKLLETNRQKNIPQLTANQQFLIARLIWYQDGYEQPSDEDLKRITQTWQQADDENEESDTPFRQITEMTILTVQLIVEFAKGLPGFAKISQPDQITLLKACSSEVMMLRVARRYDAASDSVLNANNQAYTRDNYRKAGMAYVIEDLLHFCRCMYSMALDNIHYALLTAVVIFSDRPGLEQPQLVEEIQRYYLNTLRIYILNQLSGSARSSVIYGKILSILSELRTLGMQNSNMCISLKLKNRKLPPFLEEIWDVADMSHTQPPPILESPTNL
Method: as §1, §2, §3

[9] = biological target: CfEcR-DEF mutant M125E (Choristoneura fumiferana, UniProt O77255, M408E); test: cell-based
CfEcR-DEF mutant M125E, sequence (O77255 entry or part of it M408E): as the sequence (O77255 entry or part of it F392N) above, with N186F, M202E counted along it
CfEcR-DEF mutant M125E, sequence (P28702 299-449, further chain): as the sequence (P28702 299-449, further chain) above
Method: as §1, §2, §3

[10] = biological target: CfEcR-DEF mutant A110P (Choristoneura fumiferana, UniProt O77255, A393P); test: cell-based
Method: as §1, §2, §3

[11] = biological target: CfEcR-DEF mutant F48L (Choristoneura fumiferana, UniProt O77255, F331L); test: cell-based
CfEcR-DEF mutant F48L, sequence (P28702 299-449): as the sequence (P28702 299-449, further chain) above
CfEcR-DEF mutant F48L, sequence (O77255 entry or part of it F331L): as the sequence (O77255 entry or part of it M375L) above, with F113L, L157M counted along it
Method: as §1, §2, §3

[12] = biological target: CfEcR-DEF mutant L234M (Choristoneura fumiferana, UniProt O77255, L517M); test: cell-based
CfEcR-DEF mutant L234M, sequence (P28702 299-449): as the sequence (P28702 299-449, further chain) above
CfEcR-DEF mutant L234M, sequence (O77255 entry or part of it L517M): as the sequence (O77255 entry or part of it F392N) above, with N186F, L311M counted along it
Method: as §1, §2, §3

[13] = biological target: CfEcR-DEF mutant W238P (Choristoneura fumiferana, UniProt O77255, W521P); test: cell-based
CfEcR-DEF mutant W238P, sequence (P28702 299-449): as the sequence (P28702 299-449, further chain) above
CfEcR-DEF mutant W238P, sequence (O77255 entry or part of it W521P): as the sequence (O77255 entry or part of it M375L) above, with L157M, W303P counted along it
Method: as §1, §2, §3

[14] = biological target: CfEcR-DEF mutant Y120W (Choristoneura fumiferana, UniProt O77255, Y403W); test: cell-based
Method: as §1, §2, §3

[15] = biological target: CfEcR-DEF mutant R95M (Choristoneura fumiferana, UniProt O77255, R378M); test: cell-based
CfEcR-DEF mutant R95M, sequence (P28702 299-449): as the sequence (P28702 299-449, further chain) above
CfEcR-DEF mutant R95M, sequence (O77255 entry or part of it R378M): as the sequence (O77255 entry or part of it M375L) above, with L157M, R160M counted along it
Method: as §1, §2, §3

[16] = biological target: CfEcR-DEF mutant R95W (Choristoneura fumiferana, UniProt O77255, R378W); test: cell-based
CfEcR-DEF mutant R95W, sequence (O77255 entry or part of it R378W): as the sequence (O77255 entry or part of it M375L) above, with L157M, R160W counted along it
CfEcR-DEF mutant R95W, sequence (P28702 299-449, further chain): as the sequence (P28702 299-449, further chain) above
Method: as §1, §2, §3

[17] = biological target: CfEcR-DEF mutant I51L (Choristoneura fumiferana, UniProt O77255, I334L); test: cell-based
Method: as §1, §2, §3

[18] = biological target: CfEcR-DEF mutant T52E (Choristoneura fumiferana, UniProt O77255, T335E); test: cell-based
Method: as §1, §2, §3

[19] = biological target: CfEcR-DEF mutant M54W (Choristoneura fumiferana, UniProt O77255, M337W); test: cell-based
Method: as §1, §2, §3

[20] = biological target: CfEcR-DEF mutant W238Y (Choristoneura fumiferana, UniProt O77255, W521Y); test: cell-based
Method: as §1, §2, §3

[21] = biological target: CfEcR-DEF mutant A110W (Choristoneura fumiferana, UniProt O77255, A393W); test: cell-based
CfEcR-DEF mutant A110W, sequence (P28702 299-449, stated change not applied): as the sequence (P28702 299-449, further chain) above
CfEcR-DEF mutant A110W, sequence (O77255 entry or part of it A393W): as the sequence (O77255 entry or part of it F392N) above, with N186F, A187W counted along it
Method: as §1, §2, §3

[22] = NIH3T3, 40 h, read-out: Rel Max FI
[23] = NIH3T3, mouse, 40 h, read-out: GS-E ligand max FI (relative to DMSO)

## CCc1c(OC)cccc1C(=O)NN(C(=O)c1cc(C)cc(C)c1)C(C)(C)C [RG-102240, N-(2-ethyl-3-methoxybenzoyl)-N′-(3,5-dimethylbenzoyl)-N′-tert-butylhydrazine]
[1]
  EC50: 60 nM
[1]; [22]
  Emax: 100%
[2]
  EC50: 750 nM
[2]; [22]
  Emax: 100%
[3]
  EC50: 330 nM
[3]; [22]
  Emax: 100%
[4]
  EC50: 3.49 µM
[4]; [22]
  Emax: 100%
[5]
  EC50: ~1000 nM
[5]; [22]
  Emax: 100%
[5]; [23]
  maximal fold induction: 4380
[5]; mutant V96L, GS-E ligand
  Concentration (mM) at max FI: 10 mM
[6]
  EC50: ~1000 nM
[6]; [22]
  Emax: 100%
[6]; [23]
  maximal fold induction: 615
[6]; mutant V96W, GS-E ligand
  Concentration (mM) at max FI: 33.3 mM
[7]
  EC50: ~8 µM
[7]; [22]
  Emax: 100%
[7]; [23]
  maximal fold induction: 1200
[7]; mutant M92L, GS-E ligand
  Concentration (mM) at max FI: 33.30 mM
[8]
  EC50: 2700 nM
[8]; [22]
  Emax: 100%
[8]; [23]
  maximal fold induction: 1510
[8]; mutant F109N, GS-E ligand
  Concentration (mM) at max FI: 0.0333 mM
[9]
  EC50: ~2000 nM
[9]; [22]
  Emax: 100%
[9]; [23]
  maximal fold induction: 1200
[9]; mutant M125E, GS-E ligand
  Concentration at max FI: 33.3 mM
[10]
  EC50: 550 nM
[10]; [22]
  Emax: 100%
[10]; [23]
  maximal fold induction: 2290
[11]
  EC50: 460 nM
[11]; [22]
  Emax: 100%
[11]; [23]
  maximal fold induction: 2600
[11]; mutant F48L, GS-E ligand
  Concentration (mM) at max FI: 0.0333 mM
[12]
  EC50: 1430 nM
[12]; [22]
  Emax: 100%
[12]; [23]
  maximal fold induction: 4580
[12]; mutant L234M, GS-E ligand
  Concentration (mM) at max FI: 33.30 mM
[13]
  EC50: ~400 nM
[13]; [22]
  Emax: 100%
[13]; [23]
  maximal fold induction: 4810
[13]; mutant W238P, GS-E ligand
  Concentration (mM) at max FI: 10 mM
[14]
  EC50: 4.21 µM
[14]; [22]
  Emax: 100%
[14]; [23]
  maximal fold induction: 1890
[15]
  EC50: 2760 nM
[15]; [22]
  Emax: 100%
[15]; [23]
  maximal fold induction: 1690
[15]; mutant R95M, GS-E ligand
  Concentration (mM) at max FI: 33.30 mM
[16]
  EC50: ~7 µM
[16]; [22]
  Emax: 100%
[16]; [23]
  maximal fold induction: 1820
[16]; mutant R95W, GS-E ligand
  Concentration (mM) at max FI: 33.30 mM
[17]
  EC50: 3.2 µM
[17]; [22]
  Emax: 100%
[17]; [23]
  maximal fold induction: 2480
[17]; mutant I51L, GS-E ligand
  Concentration (mM) at max FI: 33.30 mM
[18]
  EC50: ~7 µM
[18]; [22]
  Emax: 100%
[18]; [23]
  maximal fold induction: 1540
[18]; mutant T52E, GS-E ligand
  Concentration (mM) at max FI: 33.3 mM
[19]
  EC50: 1170 nM
[19]; [22]
  Emax: 100%
[19]; [23]
  maximal fold induction: 1680
[19]; mutant M54W, GS-E ligand
  Concentration (mM) at max FI: 0.01 mM
[20]
  EC50: ~13 µM
[20]; [22]
  Emax: 100%
[20]; [23]
  maximal fold induction: 11
[20]; mutant W238Y, GS-E ligand
  Concentration (mM) at max FI: 0.0333 mM
[21]
  EC50: 1370 nM
[21]; [22]
  Emax: 100%
[21]; [23]
  maximal fold induction: 5210
[21]; mutant A110W, GS-E ligand
  Concentration (mM) at max FI: 10.00 mM
